# From US11358969B2, “Indole AHR inhibitors and uses thereof” (Ikena Oncology, Inc., priority 2017, dated 2022)
# pIC50: −log10 of the molar value.
# Legend:
# AHR = target: T1, AHR (UniProt P35869); experiment: DRE-Luciferase Reporter Assay (Alternate Method) (Example 1B); format: cell-based, murine or human; conditions: cell line and AHR activating ligand not specified
# T1 construct: IC50
# T1 sequence (P35869 1-848): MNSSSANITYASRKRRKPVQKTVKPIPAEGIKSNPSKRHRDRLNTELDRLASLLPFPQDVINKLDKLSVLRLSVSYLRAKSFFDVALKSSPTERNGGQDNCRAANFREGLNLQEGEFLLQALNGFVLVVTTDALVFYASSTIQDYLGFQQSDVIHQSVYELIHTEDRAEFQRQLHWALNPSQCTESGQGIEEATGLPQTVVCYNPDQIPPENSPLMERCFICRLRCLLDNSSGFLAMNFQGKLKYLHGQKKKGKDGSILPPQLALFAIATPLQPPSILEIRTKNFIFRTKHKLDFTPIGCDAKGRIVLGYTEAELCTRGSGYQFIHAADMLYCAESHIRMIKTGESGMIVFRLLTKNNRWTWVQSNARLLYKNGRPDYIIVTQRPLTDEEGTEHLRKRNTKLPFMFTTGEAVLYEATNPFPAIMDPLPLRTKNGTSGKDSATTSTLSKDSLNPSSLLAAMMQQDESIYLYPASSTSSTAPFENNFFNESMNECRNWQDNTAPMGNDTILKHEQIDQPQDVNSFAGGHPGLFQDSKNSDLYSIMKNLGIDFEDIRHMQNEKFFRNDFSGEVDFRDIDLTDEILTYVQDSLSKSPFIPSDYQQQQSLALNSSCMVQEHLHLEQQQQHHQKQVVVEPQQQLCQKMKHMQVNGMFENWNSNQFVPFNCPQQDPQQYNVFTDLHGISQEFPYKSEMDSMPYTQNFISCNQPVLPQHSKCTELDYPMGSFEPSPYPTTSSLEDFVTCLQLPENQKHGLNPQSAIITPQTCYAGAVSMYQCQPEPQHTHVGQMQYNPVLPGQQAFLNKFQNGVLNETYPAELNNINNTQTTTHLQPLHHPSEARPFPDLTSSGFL
# [1] = Mouse Pharmacokinetic Study (Example 1C); format: in vivo; conditions: mouse, plasma, CD-1 mice; for Vd: read-out: Vdss
# Method: Formulations of compounds set forth in Table 4 were administered intravenously or orally via gavage to CD-1 mice. Typically, at 0.167, 0.5, 1, 2, 4, 6, 12, and 24 hours post-dose, blood was collected and processed to plasma by centrifugation and stored at −80° C. until analysis.
# Internal standard was added to each sample prior to protein precipitation with acetonitrile. The precipitates were filtered through a Phree phospholipid removal filter plate and the samples were analyzed by LC/MS/MS. A standard curve was prepared in plasma from typically from 1.0 ng/mL to 3000 ng/mL and processed in the same manner as the samples. Sample analysis was typically performed on a suitable LC/MS/MS system fitted with an analytical UPLC column and compounds eluted from the analytical column with a gradient from 30-95% 0.1% formic acid (v/v) in ACN: 0.1% formic acid (v/v) in water. Mass spectrometric detection of test compound and the internal standard was performed by MRM in positive mode. The pharmacokinetics of each compound were analyzed by Phoenix WinNonlin software (Pharsight, St. Louis, Mo.) via non-compartmental analysis.
# [2] = In Vitro Mouse liver S9 Metabolic Stability Assay (Example 1D); format: in vitro ADME; conditions: CD-1 mouse liver S9, 1 μM compound, 1 mg/mL S9 protein, 37° C., NADPH regenerating system, UDPGA, PAPS
# Method: CD-1 mouse liver S9 were purchased from Corning or XenoTech LLC or BioreclamationIVT, LLC or WuXi prepared. The cells were stored at −80° C. in a freezer before use. β-Nicotinamide adenine dinucleotide phosphate (NADP), Glucose 6-phosphate (G6P), Glucose 6-phosphate dehydrogenase from yeast (G6PDH), Uridine 5′-diphophoglucuronic acid trisodium salt (UDPGA) and Adenosine 3′-phosphate 5′-phosphosulfate lithium salt hydrate (PAPS) were available commercially from Sigma.
# Compounds were diluted in DMSO to make 10 mM stock solution. 5 μL of this stock solution (10 mM, DMSO) was diluted with 45 μL DMSO and 450 μL 50% Methanol/Water to make intermediate stock solution (100 μM, 45% MeOH, 10% DMSO). 50 μL of intermediate stock solution was diluted with 450 μL 100 mM phosphate buffer to make a final stock solution (10 μM, 4.5% MeOH, 1% DMSO). 10 uL of final stock solution was added to 90 uL liver S9 system (final concentration of 1 μM, 0.45% MeOH, 0.1% DMSO).
# Test compounds were incubated at 37° C. with liver S9 (pooled from multiple donors) at 1 μM in the presence of a NADPH regenerating system, UDPGA, and PAPS at 1 mg/mL S9 protein. Time samples (0 and 60 minutes) were removed and immediately mixed with cold acetonitrile containing internal standard (IS). Samples were analyzed by LC/MS/MS and disappearance of test compounds were assessed based on peak area ratios of analyte /IS (no standard curve). All samples were injected and analyzed using LC-MS/MS. The analyte/internal standard peak area ratios were converted to percentage remaining (% Remaining) with the following equation: % Remaining at 60 min=(Peak area ratio of analyte to IS at 60 min/Peak area ratio of analyte to IS at t=0)×100%. Table 5. Mouse Stability Data According to Example 1D.
SMILES,pIC50 (AHR),Mouse S9 Stability: % Remaining After 60 Minutes [2] [%],further results
"Fc1cncc(-c2cc(OC3CCCC3)nc(NCCc3c[nH]c4ccccc34)n2)c1 [I-59, 4-(Cyclopentoxy)-6-(5-fluoro-3-pyridyl)-N-[2-(1H-indol-3-yl)ethyl]pyrimidin-2-amine]",> 6.30,11,"bioavailability ([1]; po, 30 mg/kg): 22%; AUC(0-inf) ([1]; iv, 3 mg/kg): 0.949 µg·h/mL; AUC(0-t) ([1]; iv, 3 mg/kg): 0.925 µg·h/mL; clearance ([1]; iv, 3 mg/kg): 3.18 L/h/kg; half-life ([1]; iv, 3 mg/kg): 396 min; Vd ([1]; iv, 3 mg/kg): 11.2 L/kg; AUC(0-inf) ([1]; po, 30 mg/kg): 2.13 µg·h/mL; AUC(0-t) ([1]; po, 30 mg/kg): 2.11 µg·h/mL; Cmax ([1]; po, 30 mg/kg): 0.719 µg/mL; Tmax ([1]; po, 30 mg/kg): 30 min; half-life ([1]; po, 30 mg/kg): 258 min"
"O=C(c1cnn2c(NCCc3c[nH]c4ccccc34)cc(-c3cncc(F)c3)nc12)N1CCOCC1 [I-65, [5-(5-Fluoro-3-pyridyl)-7-[2-(1H-indol-3-yl)ethylamino]pyrazolo[1,5-a]pyrimidin-3-yl]-morpholino-methanone]",> 6.30,0,"bioavailability ([1]; po, 30 mg/kg): 7%; AUC(0-inf) ([1]; iv, 3 mg/kg): 0.537 µg·h/mL; AUC(0-t) ([1]; iv, 3 mg/kg): 0.522 µg·h/mL; clearance ([1]; iv, 3 mg/kg): 5.59 L/h/kg; half-life ([1]; iv, 3 mg/kg): 42 min; Vd ([1]; iv, 3 mg/kg): 2.7 L/kg; AUC(0-inf) ([1]; po, 30 mg/kg): 0.373 µg·h/mL; AUC(0-t) ([1]; po, 30 mg/kg): 0.37 µg·h/mL; Cmax ([1]; po, 30 mg/kg): 0.574 µg/mL; Tmax ([1]; po, 30 mg/kg): 12 min; half-life ([1]; po, 30 mg/kg): 48 min"
"Fc1cncc(-c2nc(NCCc3c[nH]c4ccccc34)cc(N3CCCC3)n2)c1 [I-105, 2-(5-Fluoro-3-pyridyl)-N-[2-(1H-indol-3-yl)ethyl]-6-pyrrolidin-1-yl-pyrimidin-4-amine]",> 6.30,8,–
"CC(C)c1cnc2c(NCCc3c[nH]c4ccccc34)nc(-c3cncc(F)c3)cn12 [I-106, 6-(5-Fluoro-3-pyridyl)-N-[2-(1H-indol-3-yl)ethyl]-3-isopropyl-imidazo[1,2-a]pyrazin-8-amine]",> 6.30,1,–
"CC(C)c1cnn2c(NC3Cc4ccc(O)cc4C3)cc(-c3cncc(F)c3)nc12 (stereo not drawn) [I-109, 2-[[5-(5-Fluoro-3-pyridyl)-3-isopropyl-pyrazolo[1,5-a]pyrimidin-7-yl]amino]indan-5-ol]",> 6.30,10,–
CC(C)c1ccc2c(N[C@@H]3CCc4[nH]c5ccccc5c4C3)nc(-c3cncc(F)c3)nn12 [I-156],< 5.82,28,–
"CC(C)n1cnc2c(N[C@@H]3CCc4[nH]c5ccccc5c4C3)nc(-c3cncc(F)c3)nc21 [I-162, (3R)—N-[2-(5-Fluoro-3-pyridyl)-9-isopropyl-purin-6-yl]-2,3,4,9-tetrahydro-1H-carbazol-3-amine]",> 6.30,54,–
"Cc1cnn2c(NCCc3c[nH]c4ccccc34)nc(-c3cncc(F)c3)nc12 [I-164, 2-(5-Fluoro-3-pyridyl)-N-[2-(1H-indol-3-yl)ethyl]-8-methyl-pyrazolo[1,5-a][1,3,5]triazin-4-amine]",> 6.30,0,–
"Fc1cncc(-c2nc(N[C@@H]3CCc4[nH]c5ccccc5c4C3)n3nccc3n2)c1 [I-165, (3R)—N-[2-(5-Fluoro-3-pyridyl)pyrazolo[1,5-a][1,3,5]triazin-4-yl]-2,3,4,9-tetrahydro-1H-carbazol-3-amine]",> 6.30,3,–
"CC(C)c1cnn2c(NCCc3cc[nH]c3)nc(-c3cncc(F)c3)nc12 [I-166, 2-(5-Fluoro-3-pyridyl)-8-isopropyl-N-[2-(1H-pyrrol-3-yl)ethyl]pyrazolo[1,5-a][1,3,5]triazin-4-amine]",> 6.30,4,–
"CC(C)(O)c1cnn2c(NCCc3c[nH]c4ccccc34)cc(-c3cncc(F)c3)nc12 [I-177, 2-[5-(5-Fluoro-3-pyridyl)-7-[2-(1H-indol-3-yl)ethylamino]pyrazolo[1,5-a]pyrimidin-3-yl]propan-2-ol]",> 6.30,2,–
"Cc1cnn2c(NCCc3cc[nH]c3)cc(-c3cncc(F)c3)nc12 [I-196, 5-(5-Fluoro-3-pyridyl)-3-methyl-N-[2-(1H-pyrrol-3-yl)ethyl]pyrazolo[1,5-a]pyrimidin-7-amine]",> 6.30,0,–
"Cc1[nH]c2c(F)cccc2c1CCNc1nc(-c2cncc(F)c2)nc2ccnn12 [I-200, N-[2-(7-fluoro-2-methyl-1H-indol-3-yl)ethyl]-2-(5-fluoro-3-pyridyl)pyrazolo[1,5-a][1,3,5]triazin-4-amine]",> 6.30,0,–
"Cc1[nH]c2c(F)cccc2c1CCNc1nc(-c2cncc(F)c2)nc2c(C)cnn12 [I-202, N-[2-(7-Fluoro-2-methyl-1H-indol-3-yl)ethyl]-2-(5-fluoro-3-pyridyl)-8-methyl-pyrazolo[1,5-a][1,3,5]triazin-4-amine]",> 6.30,0,–
"Fc1cncc(-c2cc(NCCc3c[nH]c4cccnc34)n3nccc3n2)c1 [I-208, 5-(5-Fluoro-3-pyridyl)-N-[2-(1H-pyrrolo[3,2-b]pyridin-3-yl)ethyl]pyrazolo[1,5-a]pyrimidin-7-amine]",< 5.82,0,–
"Cc1cnn2c(NCCc3c[nH]c4cccnc34)cc(-c3cncc(F)c3)nc12 [I-209, 5-(5-Fluoro-3-pyridyl)-3-methyl-N-[2-(1H-pyrrolo[3,2-b]pyridin-3-yl)ethyl]pyrazolo[1,5-a]pyrimidin-7-amine]",6.00 to 6.30,0,–
"Cc1[nH]c2c(F)cccc2c1CCNc1cc(-c2cncc(F)c2)nc2ccnn12 [I-214, N-[2-(7-Fluoro-2-methyl-1H-indol-3-yl)ethyl]-5-(5-fluoro-3-pyridyl)pyrazolo[1,5-a]pyrimidin-7-amine]",> 6.30,0,–
"Cc1[nH]c2c(F)cccc2c1CCNc1cc(-c2cncc(F)c2)nc2c(C)cnn12 [I-224, N-[2-(7-fluoro-2-methyl-1H-indol-3-yl)ethyl]-5-(5-fluoro-3-pyridyl)-3-methyl-pyrazolo[1,5-a]pyrimidin-7-amine]",> 6.30,0,–
"Cc1[nH]c2c(F)cccc2c1CCNc1cc(-c2cncc(F)c2)nc2c(C(F)(F)F)cnn12 [I-235, N-[2-(7-Fluoro-2-methyl-1H-indol-3-yl)ethyl]-5-(5-fluoro-3-pyridyl)-3-(trifluoromethyl)pyrazolo[1,5-a]pyrimidin-7-amine]",> 6.30,2,–
